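Results reflect a 48-hour exposure of cells in 96-well plates to compound at five concentrations. GI50 = concentration required for 50% inhibition of growth.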 Calls of active or inactive are those of the source. Rule as the data show it: active = GI50 up to about 1.1 µM and inactive = higher.
Key:
Experiment in all cases: NCI-60 cell line screen, 48 h
SK-MEL-5 = system: SK-MEL-5
LOX IMVI = system: LOX IMVI
K562 = system: K562
IGROV-1 = system: IGROV-1
NCI/ADR-RES = system: NCI/ADR-RES
MDA-N = system: MDA-N
PC-3 = system: PC-3
M14 = system: M14
CCRF-CEM = system: CCRF-CEM
SW-620 = system: SW-620
OVCAR-8 = system: OVCAR-8
SF-295 = system: SF-295
SR = system: SR
RPMI-8226 = system: RPMI-8226
ACHN = system: ACHN
UACC-62 = system: UACC-62
BT-549 = system: BT-549
KM12 = system: KM12
RXF 393 = system: RXF 393
OVCAR-4 = system: OVCAR-4

Row | Structure (SMILES) | GI50 (SK-MEL-5) | GI50 (LOX IMVI) | GI50 (K562) | GI50 (IGROV-1) | GI50 (NCI/ADR-RES) | GI50 (MDA-N) | GI50 (PC-3) | GI50 (M14) | GI50 (CCRF-CEM) | GI50 (SW-620) | GI50 (OVCAR-8) | GI50 (SF-295) | GI50 (SR) | GI50 (RPMI-8226) | GI50 (ACHN) | GI50 (UACC-62) | GI50 (BT-549) | GI50 (KM12) | GI50 (RXF 393) | GI50 (OVCAR-4)
1 | O=C1CC(Br)c2c(Cl)sc(Cl)c21 (stereo not given) | 17.6 µM (inactive) | 1.94 µM (inactive) | 2.17 µM (inactive) | 11.4 µM (inactive) | 24 µM (inactive) | 3.21 µM (inactive) | 10.8 µM (inactive) | 9.75 µM (inactive) | 0.403 µM (active) | 1.84 µM (inactive) | 3.1 µM (inactive) | 16.4 µM (inactive) | 3.89 µM (inactive) | 1.43 µM (inactive) | 12.2 µM (inactive) | 11.8 µM (inactive) | 20.8 µM (inactive) | 6.58 µM (inactive) | 2.39 µM (inactive) | 
2 | COc1ccc(CC2NCCc3cc(OC)c(OC)cc32)cc1Br (stereo not given) | 13 µM (inactive) | 19.1 µM (inactive) | 16.6 µM (inactive) | 35 µM (inactive) | 62.5 µM (inactive) | 18.2 µM (inactive) | 72.4 µM (inactive) | 16.8 µM (inactive) | 29.2 µM (inactive) | 30.9 µM (inactive) | 50.2 µM (inactive) | 21 µM (inactive) | 23.9 µM (inactive) | 18.5 µM (inactive) | 33 µM (inactive) | 28.9 µM (inactive) | 87.5 µM (inactive) | 21.6 µM (inactive) | 15.1 µM (inactive) | 38 µM (inactive)
3 | Nc1nc(F)nc2c1ncn2C1OC(COP(=O)(O)O)C(O)C1O (stereo not given) | 56.4 µM (inactive) | 53.8 µM (inactive) | 111 µM (inactive) | 286 µM (inactive) | 4.11 µM (inactive) | 34 µM (inactive) | 16.6 µM (inactive) | 6.4 µM (inactive) | 1.59 µM (inactive) | 64.9 µM (inactive) | 2.91 µM (inactive) | 309 µM (inactive) | 21.8 µM (inactive) | 80.4 µM (inactive) | 32.1 µM (inactive) | 56.2 µM (inactive) | 56.2 µM (inactive) | 266 µM (inactive) | 51.4 µM (inactive) | 212 µM (inactive)
4 | CC(C)c1ccc2c(c1)/C(=C1/Nc3ccccc3/C1=N/O)C(=O)N2 | 3.82 µM (inactive) | 5.07 µM (inactive) | 4.07 µM (inactive) | 8.73 µM (inactive) | 4.38 µM (inactive) | 6.73 µM (inactive) | 6.64 µM (inactive) | 11.5 µM (inactive) | 3.14 µM (inactive) | 5.11 µM (inactive) | 2.79 µM (inactive) | 2.13 µM (inactive) | 2.61 µM (inactive) | 4.17 µM (inactive) | 3.33 µM (inactive) | 8.57 µM (inactive) | 7.13 µM (inactive) | 0.0431 µM (active) | 2.07 µM (inactive) | 4.32 µM (inactive)
5 | CNC1C(=O)C(C)C(O)(C(CC(C)C(O)/C=C/C=C/CNC(=O)C(C)(C)C(O)\C(C)=C/C=C\C=C\Cc2cnc(C)o2)OC)C12C(=O)OC2C.CNC1C(=O)C(C)C(O)(C(CC(C)C(O)/C=C/C=C/CNC(=O)C(C)(C)C(O)\C(C)=C/C=C\C=C\Cc2cnc(C)o2)OC)C12C(=O)OC2COC (stereo not given) | 0.191 µM (active) | 14.2 µM (inactive) | 0.181 µM (active) | 0.931 µM (active) | 15.9 µM (inactive) | 15 µM (inactive) | 0.237 µM (active) | 7.46 µM (inactive) | 0.614 µM (active) | 8.65 µM (inactive) | 0.459 µM (active) | 0.528 µM (active) | 15.1 µM (inactive) | 0.711 µM (active) | 3.3 µM (inactive) | 13.3 µM (inactive) | 25.1 µM (inactive) | 7.01 µM (inactive) | 17.3 µM (inactive) | 0.345 µM (active)
6 | Clc1ccc(CCN(CCc2ccc(Cl)c(Cl)c2)CCN2CCCC2)cc1Cl | 1.81 µM (inactive) | 1.6 µM (inactive) | 2.25 µM (inactive) | 1.58 µM (inactive) | 1.75 µM (inactive) | 1.87 µM (inactive) | 1.57 µM (inactive) | 1.67 µM (inactive) | 1.15 µM (inactive) | 1.72 µM (inactive) | 1.68 µM (inactive) | 1.78 µM (inactive) | 2.01 µM (inactive) | 2.16 µM (inactive) | 1.74 µM (inactive) | 1.63 µM (inactive) | 2.04 µM (inactive) | 1.67 µM (inactive) | 1.72 µM (inactive) | 1.85 µM (inactive)
7 | NC(Cc1ccc2nc3c4ccccc4c(=O)cc-3oc2c1)C(=O)O (stereo not given) | 18 µM (inactive) | 45.8 µM (inactive) | > 100 µM (inactive) | > 100 µM (inactive) | > 100 µM (inactive) | 16 µM (inactive) | > 100 µM (inactive) | 25.3 µM (inactive) | > 100 µM (inactive) | > 100 µM (inactive) |  | > 100 µM (inactive) | > 100 µM (inactive) | > 100 µM (inactive) | > 100 µM (inactive) | 32.7 µM (inactive) | > 100 µM (inactive) | > 100 µM (inactive) | > 100 µM (inactive) | > 100 µM (inactive)
8 | Clc1ccc(-c2nn3c(COc4cccc(OCc5nnc6sc(-c7ccc(Cl)cc7)nn56)c4)nnc3s2)cc1 | 15.2 µM (inactive) | 26.3 µM (inactive) | 24.4 µM (inactive) | 26.8 µM (inactive) | 36.9 µM (inactive) | 15.7 µM (inactive) | 33.1 µM (inactive) | 27.4 µM (inactive) |  | 25.9 µM (inactive) | 28.9 µM (inactive) | 31.3 µM (inactive) | 11.2 µM (inactive) | 22.1 µM (inactive) | 22.4 µM (inactive) | 23.2 µM (inactive) | 30.7 µM (inactive) | 29.5 µM (inactive) | 16.1 µM (inactive) | 12.9 µM (inactive)
9 | O=C1OC(CN2CCN(c3ccccc3)CC2)CN1C(=S)Nc1ccccc1 (stereo not given) | > 100 µM (inactive) | > 100 µM (inactive) | 61.4 µM (inactive) | > 100 µM (inactive) | > 100 µM (inactive) | > 100 µM (inactive) | 84.7 µM (inactive) | > 100 µM (inactive) | > 100 µM (inactive) | > 100 µM (inactive) | > 100 µM (inactive) | > 100 µM (inactive) | > 100 µM (inactive) | 92.5 µM (inactive) | > 100 µM (inactive) | > 100 µM (inactive) | > 100 µM (inactive) | 88.3 µM (inactive) | > 100 µM (inactive) | > 100 µM (inactive)
10 | CCCCCCN(C(=O)Oc1ccccc1)C(C#N)c1ccccc1 (stereo not given) | > 100 µM (inactive) | > 100 µM (inactive) | > 100 µM (inactive) | > 100 µM (inactive) | > 100 µM (inactive) | > 100 µM (inactive) | > 100 µM (inactive) | > 100 µM (inactive) | > 100 µM (inactive) | > 100 µM (inactive) | > 100 µM (inactive) | > 100 µM (inactive) | > 100 µM (inactive) | > 100 µM (inactive) | > 100 µM (inactive) | > 100 µM (inactive) | > 100 µM (inactive) | > 100 µM (inactive) | > 100 µM (inactive) | > 100 µM (inactive)
11 | ON[C@@H]1C=C[C@H](n2cnc3c(NC4CC4)ncnc32)C1 | > 100 µM (inactive) | 87.5 µM (inactive) | > 100 µM (inactive) | 94.4 µM (inactive) | > 100 µM (inactive) | > 100 µM (inactive) | > 100 µM (inactive) | > 100 µM (inactive) | > 100 µM (inactive) | > 100 µM (inactive) | > 100 µM (inactive) | > 100 µM (inactive) | 88.3 µM (inactive) | > 100 µM (inactive) | > 100 µM (inactive) | > 100 µM (inactive) | > 100 µM (inactive) | > 100 µM (inactive) | > 100 µM (inactive) | > 100 µM (inactive)
12 | Cc1ccc(NC(=S)C#N)c(C)c1 | 51.9 µM (inactive) | 73.1 µM (inactive) | 38.4 µM (inactive) | > 63 µM (inactive) | 75.7 µM (inactive) | > 82.2 µM (inactive) | > 100 µM (inactive) | 97.3 µM (inactive) | 24.2 µM (inactive) | > 73.5 µM (inactive) | > 100 µM (inactive) | > 100 µM (inactive) | 33.7 µM (inactive) | 21.3 µM (inactive) | > 100 µM (inactive) | 97.3 µM (inactive) | 54.1 µM (inactive) | > 82.8 µM (inactive) | > 100 µM (inactive) | > 64.1 µM (inactive)
13 | C=C(Cl)C(=C)CCC(Cl)C(C)(C)Cl (stereo not given) | > 100 µM (inactive) | > 100 µM (inactive) | > 100 µM (inactive) | > 100 µM (inactive) | > 100 µM (inactive) | > 100 µM (inactive) | > 100 µM (inactive) | > 100 µM (inactive) | > 100 µM (inactive) | > 100 µM (inactive) |  | > 100 µM (inactive) | > 100 µM (inactive) | > 100 µM (inactive) | > 100 µM (inactive) | > 100 µM (inactive) | > 100 µM (inactive) | > 100 µM (inactive) | > 100 µM (inactive) | > 100 µM (inactive)
14 | CN(C)CCNc1ccc2ncnc3c2c1C(=O)c1ccccc1-3 | 0.759 µM (active) | 0.24 µM (active) | 0.221 µM (active) |  | 0.357 µM (active) | 0.456 µM (active) | 0.519 µM (active) | 0.314 µM (active) | 0.143 µM (active) | 0.129 µM (active) | 0.466 µM (active) | 0.174 µM (active) | 0.0824 µM (active) | 0.263 µM (active) | 0.281 µM (active) | 0.757 µM (active) | 5.32 µM (inactive) | 0.393 µM (active) | 0.444 µM (active) | 0.627 µM (active)
